Source: patent publication US8268845B2, “Tetrahydro- and dihydroquinazolinones” (Merck Patent GmbH, priority 2005, dated 2012)

In order of falling melting point:
1. O=c1[nH]c(-c2ccc(Cl)cc2)nc2c1CCCC2 [formula 7b, 2-(p-Chlorophenyl)-5,6,7,8-tetrahydroquinazolin-4(3H)-one]  255 °C
2. CC1CCc2nc(-c3ccccc3)[nH]c(=O)c2C1 (centres unmarked) [formula 10a, 6-Methyl-2-phenyl-5,6,7,8-tetrahydroquinazolin-4(3H)-one]  237 °C
3. O=c1[nH]c(-c2ccccc2)nc2c1CCCC2 [formula 7a, 2-Phenyl-5,6,7,8-tetrahydroquinazolin-4(3H)-one]  224 °C
4. CCC1CCc2nc(-c3ccccc3)[nH]c(=O)c2C1 (centres unmarked) [formula 10b, 6-Ethyl-2-phenyl-5,6,7,8-tetrahydroquinazolin-4(3H)-one]  221 °C
5. CC1=Cc2c(nc(-c3ccccc3)[nH]c2=O)CC1 [formula 11a, 6-Methyl-2-phenyl-7,8-dihydroquinazolin-4(3H)-one]  218 °C
6. CSc1nc2c(c(=O)[nH]1)C=CCC2 [formula 6g, 2-Methylthio-7,8-dihydroquinazolin-4(3H)-one]  214 °C
7. CN1CCN(c2nc3c(c(=O)[nH]2)CCCC3)CC1  210 °C
8. CCC1=Cc2c(nc(-c3ccccc3)[nH]c2=O)CC1 [formula 11b, 6-Ethyl-2-phenyl-7,8-dihydroquinazolin-4(3H)-one]  198 °C
9. O=c1[nH]c(-c2ccccc2F)nc2c1C=CCC2 [formula 6d, 2-(o-Fluorophenyl)-7,8-dihydroquinazolin-4(3H)-one]  191 °C
10. O=c1[nH]c(-c2ccccc2F)nc2c1CCCC2 [formula 7d, 2-(o-Fluorophenyl)-5,6,7,8-tetrahydroquinazolin-4(3H)-one]  170 °C
11. O=c1[nH]c(N2CCNCC2)nc2c1CCCC2  121 °C

In the case of `O=c1[nH]c(-c2ccc(Cl)cc2)nc2c1C=CCC2` [formula 6b, 2-(p-Chlorophenyl)-7,8-dihydroquinazolin-4(3H)-one], the melting point is reported as greater than 250 °C.
`O=c1[nH]c(N2CCN(Cc3ccccc3)CC2)nc2c1CC(S(=O)(=O)c1ccccc1)CC2` (centres unmarked) [formula 13b, 2-(4-benzylpiperazin-1-yl)-6-Benzenesulfonyl-5,6,7,8-tetrahydroquinazolin-4(3H)-one] gave a melting point greater than 250 °C.
For `CN1CCN(c2nc3c(c(=O)[nH]2)CC(S(=O)(=O)c2ccccc2)CC3)CC1` (centres unmarked) [formula 13c, 6-Benzenesulfonyl-2-(4-methylpiperazin-1-yl)-5,6,7,8-tetrahydroquinazolin-4(3H)-one], the melting point was greater than 250 °C.
